Blank lines part the entries; values can stand above or below the compound they belong to. Calls of active or inactive are those of the source.
Experiments:
[1] = T. cruzi infection blockers in NIH3T3 cells – beta-gal luminescence, NIH3T3 host cells, confirmation (AID 2630); format: functional, cell-based; conditions: Mus musculus
[2] = NIH/3T3 cell viability loss – mouse embryonic fibroblasts, dry powder, set 2, cytotoxicity control, dose response (AID 493247); format: functional, cell-based; conditions: Fibroblast
Trypanosoma cruzi = test: anti-trypanosomal activity in host cells – cell-based, plate reader, dry powder, set 3, dose response (AID 493197); format: functional
[3] = biological target: Voltage-gated inwardly rectifying potassium channel KCNH2 (Homo sapiens, UniProt Q12809); conditions: Potency;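 also: confirmatory quantitative high-throughput screen measuring inhibition of hERG channel activity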
Hexokinase HKDC1 = biological target: T1, Hexokinase HKDC1 (Homo sapiens, UniProt Q2TB90); test: analog inhibition of human HKDC1 activity – biochemical, set 2, SAR follow-up (AID 588355); format: functional
T1 sequence (Q2TB90 whole entry): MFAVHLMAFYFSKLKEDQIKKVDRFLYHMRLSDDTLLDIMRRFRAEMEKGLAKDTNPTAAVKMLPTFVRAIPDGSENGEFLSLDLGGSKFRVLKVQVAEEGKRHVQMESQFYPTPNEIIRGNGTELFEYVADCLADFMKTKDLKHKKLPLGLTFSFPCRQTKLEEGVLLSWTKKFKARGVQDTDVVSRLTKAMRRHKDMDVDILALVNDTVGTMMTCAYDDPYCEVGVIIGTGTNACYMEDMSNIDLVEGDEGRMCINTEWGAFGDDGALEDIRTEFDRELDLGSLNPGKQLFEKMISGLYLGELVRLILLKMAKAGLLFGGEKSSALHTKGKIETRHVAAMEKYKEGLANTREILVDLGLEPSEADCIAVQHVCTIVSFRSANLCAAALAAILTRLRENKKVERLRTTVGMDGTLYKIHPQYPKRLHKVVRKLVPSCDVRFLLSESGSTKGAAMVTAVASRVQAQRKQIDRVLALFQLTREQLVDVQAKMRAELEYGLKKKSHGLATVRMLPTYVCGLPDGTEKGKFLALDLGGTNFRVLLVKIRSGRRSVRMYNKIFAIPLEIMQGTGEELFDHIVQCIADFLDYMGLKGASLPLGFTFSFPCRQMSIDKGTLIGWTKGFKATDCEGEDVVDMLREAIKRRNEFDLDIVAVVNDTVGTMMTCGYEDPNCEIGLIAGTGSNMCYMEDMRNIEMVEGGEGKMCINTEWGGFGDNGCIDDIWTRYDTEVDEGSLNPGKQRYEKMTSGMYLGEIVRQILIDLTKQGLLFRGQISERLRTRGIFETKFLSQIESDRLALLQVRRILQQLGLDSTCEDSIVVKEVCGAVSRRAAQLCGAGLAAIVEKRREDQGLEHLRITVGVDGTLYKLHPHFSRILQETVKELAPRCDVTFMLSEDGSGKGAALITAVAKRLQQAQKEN

Hexokinase-1 = biological target: T2, Hexokinase-1 (Homo sapiens, UniProt P19367); test: hexokinase 1 activity inhibitors, potency – biochemical, set 2, resazurin fluorescence coupled readout, selectivity assay for HKDC1 inhibitor project, SAR follow-up (AID 588356); format: functional
T2 sequence (P19367 whole entry): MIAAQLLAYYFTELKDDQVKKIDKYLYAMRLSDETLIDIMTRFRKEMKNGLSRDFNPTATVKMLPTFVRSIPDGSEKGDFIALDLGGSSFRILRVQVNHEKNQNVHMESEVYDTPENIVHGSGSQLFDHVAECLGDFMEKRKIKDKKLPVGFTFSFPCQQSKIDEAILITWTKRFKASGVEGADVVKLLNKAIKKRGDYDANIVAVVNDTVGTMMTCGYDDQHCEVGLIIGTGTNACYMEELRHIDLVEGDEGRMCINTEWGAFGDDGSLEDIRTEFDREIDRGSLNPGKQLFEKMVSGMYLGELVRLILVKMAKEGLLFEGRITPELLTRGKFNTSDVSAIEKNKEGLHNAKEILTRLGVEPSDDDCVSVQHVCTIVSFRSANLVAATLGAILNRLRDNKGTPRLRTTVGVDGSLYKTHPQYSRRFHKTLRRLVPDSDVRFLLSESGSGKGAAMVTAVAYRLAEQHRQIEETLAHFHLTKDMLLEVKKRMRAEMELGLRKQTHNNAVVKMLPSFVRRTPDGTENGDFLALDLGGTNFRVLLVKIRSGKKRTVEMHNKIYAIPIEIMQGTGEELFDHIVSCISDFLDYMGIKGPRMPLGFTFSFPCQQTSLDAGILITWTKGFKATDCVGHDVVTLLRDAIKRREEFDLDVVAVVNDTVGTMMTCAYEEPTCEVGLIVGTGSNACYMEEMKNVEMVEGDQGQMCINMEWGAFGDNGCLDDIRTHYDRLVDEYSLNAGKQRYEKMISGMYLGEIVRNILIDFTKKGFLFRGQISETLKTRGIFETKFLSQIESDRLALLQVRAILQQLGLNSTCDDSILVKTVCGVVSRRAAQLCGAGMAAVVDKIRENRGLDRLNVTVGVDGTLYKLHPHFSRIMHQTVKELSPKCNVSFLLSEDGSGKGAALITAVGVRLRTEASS

Sequence of Voltage-gated inwardly rectifying potassium channel KCNH2 (Q12809 whole entry): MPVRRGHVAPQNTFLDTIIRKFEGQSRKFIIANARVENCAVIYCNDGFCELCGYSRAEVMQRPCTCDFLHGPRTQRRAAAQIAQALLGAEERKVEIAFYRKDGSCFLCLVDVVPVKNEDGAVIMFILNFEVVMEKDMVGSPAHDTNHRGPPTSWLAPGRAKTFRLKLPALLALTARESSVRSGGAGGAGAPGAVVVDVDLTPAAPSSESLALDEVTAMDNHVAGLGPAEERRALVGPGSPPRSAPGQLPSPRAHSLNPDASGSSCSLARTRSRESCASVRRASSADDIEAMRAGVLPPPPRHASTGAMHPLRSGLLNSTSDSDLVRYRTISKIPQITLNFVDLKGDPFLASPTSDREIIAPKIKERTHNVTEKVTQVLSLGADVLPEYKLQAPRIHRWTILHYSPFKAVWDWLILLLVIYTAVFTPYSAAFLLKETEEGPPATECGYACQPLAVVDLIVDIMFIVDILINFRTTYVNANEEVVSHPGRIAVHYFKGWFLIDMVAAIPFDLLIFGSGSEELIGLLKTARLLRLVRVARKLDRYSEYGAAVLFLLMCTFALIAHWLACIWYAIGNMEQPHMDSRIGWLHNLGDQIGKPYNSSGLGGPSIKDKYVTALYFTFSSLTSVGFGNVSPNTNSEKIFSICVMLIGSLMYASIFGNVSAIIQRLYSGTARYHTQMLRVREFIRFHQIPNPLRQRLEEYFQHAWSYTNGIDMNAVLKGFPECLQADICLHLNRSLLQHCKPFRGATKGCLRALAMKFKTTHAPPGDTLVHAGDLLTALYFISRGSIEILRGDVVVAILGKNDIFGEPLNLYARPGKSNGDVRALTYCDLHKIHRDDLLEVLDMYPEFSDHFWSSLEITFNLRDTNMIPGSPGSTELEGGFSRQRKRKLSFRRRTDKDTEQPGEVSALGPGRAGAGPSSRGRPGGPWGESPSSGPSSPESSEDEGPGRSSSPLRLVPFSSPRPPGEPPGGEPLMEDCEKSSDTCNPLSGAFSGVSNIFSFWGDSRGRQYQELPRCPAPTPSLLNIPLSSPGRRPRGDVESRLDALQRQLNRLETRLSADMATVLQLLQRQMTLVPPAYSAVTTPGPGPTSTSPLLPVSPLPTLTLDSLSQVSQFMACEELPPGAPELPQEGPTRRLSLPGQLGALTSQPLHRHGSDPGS

SMILES: COc1ccccc1CN1CCCC(C(=O)N(C)Cc2ccccc2)C1 (stereo unspecified)
- EC50 [1]: 0.856 µM (active)
- AC50 [2]: 73.3 µM (active)
- AC50 (Trypanosoma cruzi): 10.8 µM (active)

SMILES: CC(C)(C)c1ccc(S(=O)(=O)/C=C/C#N)cc1 [BAY-11-7085]
- AC50 [3]: 35.5 µM (inconclusive)

- IC50 (Hexokinase HKDC1): > 80 µM (inactive)
- IC50 (Hexokinase-1): > 80 µM (inactive)
SMILES: COc1cccc(N2C(=O)c3cccnc3C2Nc2ccc(C)c(C)c2)c1 (stereo unspecified)

From ChEMBL document CHEMBL1201862, “PubChem BioAssay data set” (2004)
